Assay results from the supplement of paper PMC11061612.

Columns and labels:
[1] = test system: DoTc2-4510 (Cervical Carcinoma); experiment: combination Emax (second highest fraction inhibited in the dose matrix, 72 h); higher = more inhibition; extreme values may be limits of the assay
Method in brief: (§1)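 Cell lines grown in DMEM/F12 or RPMI with 10% FBS were plated in 1536-well plates and held 24 hours at 37°C, 5% CO2 before 72 hours of exposure to two-drug dose matrices, with DMSO typically at 0.2%. CellTiter-Glo 2.0 luminescence gave viability, which was converted to inhibition. Vehicle wells were set to 0 and blank wells to 1. Combination Emax is the second-highest inhibition in the matrix, and Bliss excess is the observed combination effect minus the expected EA + EB − EA·EB, where EA and EB are the single-agent effects.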

[2] = test system: TE-9 (Esophageal Squamous Cell Carcinoma); experiment: as above
Method in brief: as §1

HOS (Osteosarcoma) = experiment: as above
Method in brief: as §1

[3] = test system: ME-1 (Acute Myeloid Leukemia); experiment: as above
Method in brief: as §1

[4] = test system: LB831-BLC (Bladder Carcinoma); experiment: as above
Method in brief: as §1

[5] = test system: SK-ES-1 (Ewing's Sarcoma); experiment: as above
Method in brief: as §1

[6] = test system: Calu-3 (Lung Adenocarcinoma); experiment: as above
Method in brief: as §1

[7] = test system: HCC1806 (Breast Carcinoma); experiment: as above
Method in brief: as §1

[8] = test system: KYSE-520 (Esophageal Squamous Cell Carcinoma); experiment: as above
Method in brief: as §1

[9] = test system: MDA-MB-361 (Breast Carcinoma); experiment: as above
Method in brief: as §1

NOS-1 (Osteosarcoma) [10] = experiment: as above
Method in brief: as §1

KELLY (Neuroblastoma) [11] = experiment: as above
Method in brief: as §1

[12] = test system: MFE-296 (Endometrial Carcinoma); experiment: as above
Method in brief: as §1

[13] = test system: HCC-78 (Lung Adenocarcinoma); experiment: as above
Method in brief: as §1

[14] = test system: Daoy (Other Solid Carcinomas); experiment: Bliss excess, mean over the matrix (fraction); higher = more synergy
Method in brief: as §1

[15] = test system: HuP-T4 (Pancreatic Carcinoma); experiment: as above
Method in brief: as §1

[16] = test system: Calu-3 (Lung Adenocarcinoma); experiment: as above
Method in brief: as §1

[17] = test system: B-CPAP (Thyroid Gland Carcinoma); experiment: as above
Method in brief: as §1

NOS-1 (Osteosarcoma) [18] = experiment: as above
Method in brief: as §1

KELLY (Neuroblastoma) [19] = experiment: as above
Method in brief: as §1
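Throughout, for Bliss excess, mean over the matrix: after 72 h of two-drug dosing.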

| SMILES | combination Emax [1] | combination Emax [2] | combination Emax (HOS (Osteosarcoma)) | combination Emax [3] | combination Emax [4] | combination Emax [5] | combination Emax [6] | combination Emax [7] | combination Emax [8] | combination Emax [9] | combination Emax (NOS-1 (Osteosarcoma) [10]) | combination Emax (KELLY (Neuroblastoma) [11]) | combination Emax [12] | combination Emax [13] | Bliss excess [14] | Bliss excess [15] | Bliss excess [16] | Bliss excess [17] | Bliss excess (NOS-1 (Osteosarcoma) [18]) | Bliss excess (KELLY (Neuroblastoma) [19]) |
| --- | --- | --- | --- | --- | --- | --- | --- | --- | --- | --- | --- | --- | --- | --- | --- | --- | --- | --- | --- | --- |
| CC1(C)CCC(CN2CCN(c3ccc(C(=O)NS(=O)(=O)c4ccc(NCC5CCOCC5)c([N+](=O)[O-])c4)c(Oc4cnc5[nH]ccc5c4)c3)CC2)=C(c2ccc(Cl)cc2)C1 [Venetoclax] + C[C@@H](Nc1cc(F)cc(F)c1)c1cc(C(=O)N(C)C)cc2c(=O)cc(N3CCOCC3)oc12 [AZD8186] (first compound max 1 µM, 7x7, partner max 3 µM) | 0.197 | 0.129 | 0.0842 | 1 | 0.182 | 0.64 | 0.0911 | 0.0952 | 0.247 | 0.372 | 0.462 | 1 | 0.0282 | 0.261 | -0.0073 | 0.0033 | -0.0189 | -0.0151 | 0.018 | 0.0068 |
| CC1(C)CCC(CN2CCN(c3ccc(C(=O)NS(=O)(=O)c4ccc(NCC5CCOCC5)c([N+](=O)[O-])c4)c(Oc4cnc5[nH]ccc5c4)c3)CC2)=C(c2ccc(Cl)cc2)C1 [Venetoclax] + Cc1cc2ncnn2cc1Nc1ncc2c(n1)n(C1CCOCC1)c(=O)n2C [AZD7648] (first compound max 1 µM, 7x7, partner max 10 µM) | 0.23 | 0.154 | 0.204 | 1 | 0.241 | 0.465 | 0.155 | 0.172 | 0.34 | 0.44 | 0.244 | 0.989 | 0.147 | 0.243 | -0.0129 | -0.0151 | 0.0113 | -0.0146 | -0.0504 | -0.0064 |
| CC1(C)CCC(CN2CCN(c3ccc(C(=O)NS(=O)(=O)c4ccc(NCC5CCOCC5)c([N+](=O)[O-])c4)c(Oc4cnc5[nH]ccc5c4)c3)CC2)=C(c2ccc(Cl)cc2)C1 [Venetoclax] + Cn1cnc2c(F)c(Nc3ccc(Br)cc3Cl)c(C(=O)NOCCO)cc21 [Selumetinib] (first compound max 1 µM, 7x7, partner max 3 µM) | 0.268 | 0.0846 | 0.089 | 1 | 0.142 | 0.285 | 0.071 | 0.359 | 0.299 | 0.155 | 0.227 | 1 | 0.0803 | 0.167 | -0.0185 | 0.0009 | -0.0214 | -0.0446 | -0.0082 | 0.009 |
